Experimental data: ChEMBL document CHEMBL3351988, “Synthesis and biological evaluation of novel 6-chloro-quinazolin derivatives as potential antitumor agents” (Eur J Med Chem, 2014)
Structures can show the parent of a compound that is named as a salt.

Tested on: not listed separately
Experiment: Growth inhibition of human PC3 cells after 72 hrs by MTT assay
Type: functional, cell-based
Details: PC-3, 72 h

| Compound | IC50 [µM] |
| --- | --- |
| O=C(/C=C/c1ccc(Oc2ncnc3ccc(Cl)cc23)cc1)/C=C/c1c(Cl)cccc1Cl | 9.3 |
| O=C(/C=C/c1ccc(Cl)c([N+](=O)[O-])c1)/C=C/c1ccccc1Oc1ncnc2ccc(Cl)cc12 | 9.76 |
| O=C(/C=C/c1ccccc1Oc1ncnc2ccc(Cl)cc12)/C=C/c1cccc(Cl)c1Cl | 8.35 |
| O=C(/C=C/c1ccc(Oc2ncnc3ccc(Cl)cc23)cc1)/C=C/c1ccc(Cl)c(Cl)c1 | 18.8 |
| O=C(/C=C/c1ccccc1Oc1ncnc2ccc(Cl)cc12)/C=C/c1c(Cl)cccc1Cl | 7.98 |
| COc1cccc2c1C(=O)c1c(O)c3c(c(O)c1C2=O)C[C@@](O)(C(=O)CO)C[C@@H]3O[C@H]1C[C@H](N)[C@H](O)[C@H](C)O1 [DOXORUBICIN HYDROCHLORIDE] | 0.8 |

Tested on: Bcap37
Experiment: Growth inhibition of human Bcap37 cells after 72 hrs by MTT assay
Type: functional, cell-based
Details: Bcap37, 72 h

| Compound | IC50 [µM] |
| --- | --- |
| O=C(/C=C/c1ccc(Oc2ncnc3ccc(Cl)cc23)cc1)/C=C/c1c(Cl)cccc1Cl | 13.8 |
| O=C(/C=C/c1ccc(Cl)c([N+](=O)[O-])c1)/C=C/c1ccccc1Oc1ncnc2ccc(Cl)cc12 | 12.3 |
| O=C(/C=C/c1ccccc1Oc1ncnc2ccc(Cl)cc12)/C=C/c1cccc(Cl)c1Cl | 11.5 |
| O=C(/C=C/c1ccc(Oc2ncnc3ccc(Cl)cc23)cc1)/C=C/c1ccc(Cl)c(Cl)c1 | 27.9 |
| O=C(/C=C/c1ccccc1Oc1ncnc2ccc(Cl)cc12)/C=C/c1c(Cl)cccc1Cl | 11.3 |
| COc1cccc2c1C(=O)c1c(O)c3c(c(O)c1C2=O)C[C@@](O)(C(=O)CO)C[C@@H]3O[C@H]1C[C@H](N)[C@H](O)[C@H](C)O1 [DOXORUBICIN HYDROCHLORIDE] | 0.94 |

Tested on: MGC-803
Experiment: Growth inhibition of human MGC803 cells at 10 uM after 72 hrs by MTT assay
Type: functional
Details: MGC-803, 72 h, read-out: GI

| Compound | inhibition of growth at 10 µM [%] |
| --- | --- |
| O=C(/C=C/c1ccc(Oc2ncnc3ccc(Cl)cc23)cc1)/C=C/c1c(Cl)cccc1Cl | 61.7 |
| O=C(/C=C/c1ccc(Cl)c([N+](=O)[O-])c1)/C=C/c1ccccc1Oc1ncnc2ccc(Cl)cc12 | 70.2 |
| O=C(/C=C/c1ccccc1Oc1ncnc2ccc(Cl)cc12)/C=C/c1cccc(Cl)c1Cl | 76.5 |
| O=C(/C=C/c1ccc(Oc2ncnc3ccc(Cl)cc23)cc1)/C=C/c1ccc(Cl)c(Cl)c1 | 50.5 |
| O=C(/C=C/c1ccccc1Oc1ncnc2ccc(Cl)cc12)/C=C/c1c(Cl)cccc1Cl | 69.3 |
| COc1cccc2c1C(=O)c1c(O)c3c(c(O)c1C2=O)C[C@@](O)(C(=O)CO)C[C@@H]3O[C@H]1C[C@H](N)[C@H](O)[C@H](C)O1 [DOXORUBICIN HYDROCHLORIDE] | 95.8 |

Tested on: Bcap37
Experiment: Growth inhibition of human Bcap37 cells at 10 uM after 72 hrs by MTT assay
Type: functional
Details: Bcap37, 72 h, read-out: GI

| Compound | inhibition of growth at 10 µM [%] |
| --- | --- |
| O=C(/C=C/c1ccc(Oc2ncnc3ccc(Cl)cc23)cc1)/C=C/c1c(Cl)cccc1Cl | 62.5 |
| O=C(/C=C/c1ccc(Cl)c([N+](=O)[O-])c1)/C=C/c1ccccc1Oc1ncnc2ccc(Cl)cc12 | 52.5 |
| O=C(/C=C/c1ccccc1Oc1ncnc2ccc(Cl)cc12)/C=C/c1cccc(Cl)c1Cl | 70.2 |
| O=C(/C=C/c1ccc(Oc2ncnc3ccc(Cl)cc23)cc1)/C=C/c1ccc(Cl)c(Cl)c1 | 34.5 |
| O=C(/C=C/c1ccccc1Oc1ncnc2ccc(Cl)cc12)/C=C/c1c(Cl)cccc1Cl | 67.1 |
| COc1cccc2c1C(=O)c1c(O)c3c(c(O)c1C2=O)C[C@@](O)(C(=O)CO)C[C@@H]3O[C@H]1C[C@H](N)[C@H](O)[C@H](C)O1 [DOXORUBICIN HYDROCHLORIDE] | 96.2 |

Tested on: not listed separately
Experiment: Growth inhibition of human PC3 cells at 10 uM after 72 hrs by MTT assay
Type: functional
Details: PC-3, 72 h, read-out: GI

| Compound | inhibition of growth at 10 µM [%] |
| --- | --- |
| O=C(/C=C/c1ccc(Oc2ncnc3ccc(Cl)cc23)cc1)/C=C/c1c(Cl)cccc1Cl | 67.5 |
| O=C(/C=C/c1ccc(Cl)c([N+](=O)[O-])c1)/C=C/c1ccccc1Oc1ncnc2ccc(Cl)cc12 | 62.5 |
| O=C(/C=C/c1ccccc1Oc1ncnc2ccc(Cl)cc12)/C=C/c1cccc(Cl)c1Cl | 73.8 |
| O=C(/C=C/c1ccc(Oc2ncnc3ccc(Cl)cc23)cc1)/C=C/c1ccc(Cl)c(Cl)c1 | 33.5 |
| O=C(/C=C/c1ccccc1Oc1ncnc2ccc(Cl)cc12)/C=C/c1c(Cl)cccc1Cl | 70.1 |
| COc1cccc2c1C(=O)c1c(O)c3c(c(O)c1C2=O)C[C@@](O)(C(=O)CO)C[C@@H]3O[C@H]1C[C@H](N)[C@H](O)[C@H](C)O1 [DOXORUBICIN HYDROCHLORIDE] | 93.5 |

Tested on: MGC-803
Experiment: Growth inhibition of human MGC803 cells after 72 hrs by MTT assay
Type: functional, cell-based
Details: MGC-803, 72 h

| Compound | IC50 [µM] |
| --- | --- |
| O=C(/C=C/c1ccc(Oc2ncnc3ccc(Cl)cc23)cc1)/C=C/c1c(Cl)cccc1Cl | 6.77 |
| O=C(/C=C/c1ccccc1Oc1ncnc2ccc(Cl)cc12)/C=C/c1cccc(Cl)c1Cl | 5.21 |
| O=C(/C=C/c1ccc(Oc2ncnc3ccc(Cl)cc23)cc1)/C=C/c1ccc(Cl)c(Cl)c1 | 16.9 |

Continued, values first:

| IC50 [µM] | Compound |
| --- | --- |
| 5.32 | O=C(/C=C/c1ccc(Cl)c([N+](=O)[O-])c1)/C=C/c1ccccc1Oc1ncnc2ccc(Cl)cc12 |
| 5.17 | O=C(/C=C/c1ccccc1Oc1ncnc2ccc(Cl)cc12)/C=C/c1c(Cl)cccc1Cl |
| 0.71 | COc1cccc2c1C(=O)c1c(O)c3c(c(O)c1C2=O)C[C@@](O)(C(=O)CO)C[C@@H]3O[C@H]1C[C@H](N)[C@H](O)[C@H](C)O1 [DOXORUBICIN HYDROCHLORIDE] |
